The values below come from patent US7385103B2, “Animal model, cells, and treatment for malignant melanoma” (Rutgers, the State University, priority 2004, dated 2008).

The subject of data set [1] is Grm1-mediated ERK1/2 activation. As to the kind of experiment: ERK1/2 phosphorylation in melanoma cells, western blot with phospho-ERK1/2 antibodies. Conditions: for phosphorylation of ERK1/2: 10^−5 M. Format: cell-based, mouse. How it is done:
To examine whether ERK1/2 were activated after Grm1 activation, cells were treated for the indicated times with the agonist Quisqualate. After treatment, melanoma cells were lysed and the activation of ERK1/2 was determined using antibodies against the phosphorylated forms of ERK1/2.
Melanoma cells lines were transiently transfected with dominant-negative mutants of Grm1 and expression of the Grm1 mutants was analyzed by western blot analysis.
Upon IP3 accumulation in cells, calcium is released from the endoplasmic reticulum to the cytoplasm, allowing these ions to act as second messengers that bind to calmodulin and further activate calcium-calmodulin-dependent kinases that are capable of activating mitogen-activated protein kinases (MAPKS) (Soderling (1999) Trends Biochem. Sci. 24(6):232-6). Accordingly, it was determined whether IP3 accumulation in the tumor cell lines disclosed herein, upon Grm1 agonist treatment, would yield intracellular calcium signaling that could affect ERK activation. Depletion of intracellular calcium in these cells was obtained by chelating extracellular calcium with EGTA, which obligates calcium to exit the cell in order to maintain calcium homeostasis.
PIP2 hydrolysis resulting from Grm1 activation leads to the production of IP3 and DAG. DAG can then activate protein kinase C (PKC). […] Thus, it was determined whether the activation of ERK1/2 by Grm1 is also mediated by PKC in the tumor cell lines disclosed herein.
To have a minimum amount of the natural ligand (glutamate) present in the growth medium, customized glutamine- and glutamate-free RPMI (RPMI-glu) was used (INVITROGEN™, Carlsbad, Calif.). GLUTAMAX™ (INVITROGEN™), a substitute for glutamate and glutamine, was added to the growth medium at a final concentration of 2 mM, and 10% dialyzed fetal calf serum (INVITROGEN™) was used to supplement the medium. For induction with Grm1 agonist, quisqualate, the cells were grown in RPMI-glu for 3-4 days, plated at 3×10^5 cells per 60-mm plate and serum starved overnight. Several concentrations of quisqualate (10^−4 M to 10^−6 M) and several time points (30 seconds to 120 minutes) were tested for optimal induction. For Grm1 antagonist effects, cells were pretreated for 30 minutes with 10^−5 M of LY367385 before agonist treatment. For PKC inhibitor (RO-31-8220) and calcium chelators (EGTA, BAPTA-AM), cells were pretreated for indicated times before agonist challenge.
Proteins were extracted using lysis buffer (50 mM Tris-HCl, 150 mM NaCl, 1 mM EDTA, 1% NP-40, 5% glycerol, and 1 mM dithiothreitol, pH 7.4) and protease inhibitors (Complete protease inhibitor cocktail tablets, Roche Molecular Biochemicals, Indianapolis, Ind.). Protein concentrations were measured using the BIO-RAD® DC Protein Assay kit (Bio-Rad, Hercules, Calif.). Equal amounts of lysates were loaded in each lane in 7.5 or 10% polyacrylamide gels (BIO-RAD®, Hercules, Calif.). Proteins were transferred to nitrocellulose membranes (Osmonics, Minnetonka, Minn.). Ponceau Red staining of membranes, after transfer, was performed to verify equivalent amounts of protein between samples. Anti-PERK, ERK, PhosphoPKC isoforms, PKC isoforms antibodies were obtained from Cell Signaling Technology, Inc. (Beverly, Mass.).
On the technique in general: Immunoblotting shows a protein as a band on a membrane.

The test system of the next data set is melanoma cell lines. Briefly: establishment of melanoma cell lines from amelanotic ear tumors in culture. Type of data set: cell-based, mouse. On the procedure:
To further analyze the signaling events mediated by Grm1 in transformed melanocytes, cell lines derived from ear tumor bearing albino mice (Cohen-Salal, et al. (2001) supra) were generated. Tumors from these mice were sectioned in two halves. Protein extraction was performed on one part of the tumors and western immunoblots were done to verify the ectopic expression of Grm1. The other half of the tumor was used to generate homogeneous in vitro melanoma cell lines by gentle selection of melanocyte cells over keratinocytes and fibroblasts through differential geneticin resistance. Initial efforts to directly establish cell lines on standard culture medium supplemented with geneticin were unsuccessful. […] Based on morphology and growth rate, 10^−5 M quisqualate was sufficient to establish growth in culture. […] Ten cells lines namely LL1A, LL1T, Nu1, Nu2, MMB3A, MMB3T, 4045A, 4045T, 4046T, 4046A, were successfully generated from at least six independent mice tumors. Given that these mouse melanoma cell lines behave very similarly in culture, data presented herein is of representative cell lines. […] Cytoplasmic staining for Grm1 has also been reported in other cellular systems (Tadokoro, et al. (1999) Proc. Natl. Acad. Sci. USA 96:13801-13806). To verify the melanocytic origin of these cells, co-staining of the cells was performed with Tyrp-1. […]

As to `CC(=O)OCOC(=O)CN(CC(=O)OCOC(C)=O)c1ccccc1OCCOc1ccccc1N(CC(=O)OCOC(C)=O)CC(=O)OCOC(C)=O` [BAPTA-AM], the “ERK activation by quisqualate” value in data set [1] (preincubation 30 minutes prior to agonist challenge, in calcium-free media) was “completely abolished”; in data set [1] (preincubation 30 minutes prior to agonist challenge, in the presence of extracellular calcium) it was “dose-dependent decrease in ERK activation”.

Consider `O=C(O)CN(CCOCCOCCN(CC(=O)O)CC(=O)O)CC(=O)O` [EGTA], for which, in data set [1] (chelating extracellular calcium to deplete intracellular calcium), the “ERK activation by quisqualate” value is “time-dependent decrease in ERK activation”.

As to `Cc1cc(C(=O)O)ccc1[C@H](N)C(=O)O` [LY367385], the “activation of ERK1/2 by quisqualate” value in data set [1] (melanoma lines pretreated 30 minutes with antagonist (10^−5 M) before agonist challenge) is listed as “abrogated”.

For `N[C@@H](Cn1oc(=O)[nH]c1=O)C(=O)O` [quisqualate, L-quisqualate], the “phosphorylation of ERK1/2” value in data set [1] (after 5 minutes of tumor cell stimulation) is reported as “increase in the phosphorylation of ERK1/2”; in data set [1] (after 15 minutes of stimulation) it was “reduced to background levels”. For the same molecule, in the data set with melanoma cell lines (based on morphology and growth rate), the “quisqualate concentration sufficient to establish growth in culture” value is recorded as 10^−5 M. Further, the “establishment of melanoma cell lines on addition to culture medium” value in the data set with melanoma cell lines (culture medium supplemented with geneticin) is “enabled the establishment of melanoma cell lines”.

B1: siRNA: siRNA specific for Grm1 nucleic acid, templates SEQ ID NO:3 (top strand) and SEQ ID NO:4 (bottom strand) (nucleic acid)
sense: GATCCCGTGGACGGAGATGTCATCATTTCAAGAGAATGATGACATCTCCGTCCATTTTTTGGAAA
antisense: GCTTTTCCAAAAAATGGACGGAGATGTCATCATTCTCTTGAAATGATGACATCTCCGTCCACGG
modifications: expressed or natural sequence; the letters are possibly those of the target site
As to B1, in data set [1] (transfected melanoma cells, compared to cells transfected with an unrelated siRNA sequence), the “ERK activation by Grm1 agonist” value is listed as “inhibited ERK activation”.
